{
  "source": "patent US20130045947A1",
  "about": "“PLA2ACTIVITY AS A MARKER FOR OVARIAN AND OTHER GYNECOLOGIC CANCERS” (INDIANA UNIVERSITY RESEARCH AND TECHNOLOGY CORPORATION, priority 2010, published 2013)",
  "key": {"[1]": {"tested_on": "SKOV3 cells", "test": "Cell migration assay, SKOV3 cells", "format": "cell-based, human", "conditions": "for stimulation of migration: SKOV3 cells, FIG. 10D; for effect on migration of SKOV3 cells induced by S1 fractions: inhibitor in lower chamber, two different S1 fractions, FIG. 10A", "procedure": "In order to determine whether PLA2 and ATX were functionally involved in ascites-induced migration of EOC cells, the inhibitors MAFP, BEL, and HA130 were added to the lower chambers during the assay. […] The effect of each inhibitor was almost identical whether using S1, S3, or S4 fractions (FIG. 10 and data not shown)."}, "[2]": {"tested_on": "SKOV3 cells", "test": "MTT proliferation assay, ascites-stimulated SKOV3 cells", "format": "cell-based, human", "conditions": "S1-stimulated; 10 μM Ki16425"}, "[3]": {"tested_on": "RAW 264.7 mouse macrophages", "test": "PLA2 activity in conditioned medium (CM) of macrophages", "format": "cell-based", "conditions": "for effect on PLA2 activity detected in CM: exosome secretion inhibitors, DMA 5 and 12.5 nM, MBC 1 and 2 mM; for order of effectiveness in reducing PLA2 activity of CM: ABC transporter inhibitors; for effect on PLA2 activity of CM: cells treated 4 hr, 17-hr CM, MK571 10-50 μM, CsA 2-50 μM, glyburide 0.1-2 mM, FIG. 12B"}, "[4]": {"tested_on": "SKOV3 cells", "test": "Cell invasion assay", "conditions": "FIG. 10D"}, "[5]": {"tested_on": "PLA2", "format": "biochemical, human"}, "[6]": {"tested_on": "EOC cells", "test": "Ascites-stimulated proliferation, migration and invasion of EOC cells", "conditions": "S1 and S3 specimens"}, "[7]": {"tested_on": "EOC metastasis", "conditions": "with low and non-toxic doses of paclitaxel; shown previously; cited from earlier work"}, "[8]": {"tested_on": "PLA2", "format": "biochemical, human", "conditions": "for sensitivity of exosome-associated PLA2 activity to inhibitor: exosomes isolated from human ascites (ExoQuick); for inhibition of ascitic PLA2 activity: cell-free human EOC ascites"}, "[9]": {"tested_on": "PLA2", "format": "biochemical, mouse"}, "[10]": {"tested_on": "tumors", "test": "Tumors from control and BEL-treated mice", "format": "in vivo, mouse", "text": "Referring now to FIGS. 3A, C and D, PLA2 activities measured from several mouse models for GYN diseases are presented."}, "[11]": {"target": "sPLA2 (Apis mellifera, UniProt P00630)", "sequence (P00630 34-167 limits assumed)": "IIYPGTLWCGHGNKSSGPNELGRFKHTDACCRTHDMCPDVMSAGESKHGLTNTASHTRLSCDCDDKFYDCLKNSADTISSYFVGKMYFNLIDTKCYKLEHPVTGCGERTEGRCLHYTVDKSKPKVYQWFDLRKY", "format": "biochemical, bee"}, "[12]": {"tested_on": "SKOV3 cells", "test": "Migration of SKOV3 cells to RAW 264.7 macrophage CM", "format": "cell-based, human", "conditions": "MK571 50 μM, glyburide 500 μM; FIG. 12C", "procedure": "Referring now to FIG. 12C, CM from RAW 264.7 mouse macrophages was tested to determine if it would stimulate migration of SKOV3 cells. Migration of SKOV3 cells to 17-hr CM from untreated cells and cells treated with inhibitors (MK571, 50 μM, CsA, 10 μM, glyburide, 500 μM, and MAFP, 20 μM). ***, P<0.001 compared to CM. Data is mean and SD of three membranes; experiment repeated twice. An approximately 2-fold increase in migration with the CM compared to the medium control in the bottom well of the migration chamber was found. […] The addition of MAFP to the CM also abrogated migration."}, "[13]": {"tested_on": "EOC cells", "conditions": "has been shown (earlier work); cited from earlier work"}},
  "note": "Entries after “also recorded” stand apart in the source; their conditions may differ.",
  "data": [
    {"compound": "Cc1noc(-c2ccc(CSCCC(=O)O)cc2)c1NC(=O)OC(C)c1ccccc1Cl", "note": "(centres unmarked) [Ki16425]", "values": [
      {"measurement": "inhibition of migratory activity induced by S1, S3 and P3 fractions", "setting": "[1]; SKOV3 cells pretreated with Ki16425 (10 μM), FIG. 10B", "result": "> 70", "unit": "%"},
      {"measurement": "proliferation of SKOV3 cells reduced by", "setting": "[2]", "result": "12.4±7.44", "unit": "%"}
    ]},
    {"compound": "methyl-β-cyclodextrin [MBC]", "values": [
      {"measurement": "effect on PLA2 activity detected in CM", "setting": "[3]", "result": "Neither inhibitor had any significant effect"}
    ]},
    {"compound": "Lysophosphatidylinositol [LPI]", "values": [
      {"measurement": "stimulation of migration", "setting": "[1]", "result": "did not stimulate"},
      {"measurement": "stimulation of invasion", "setting": "[4]", "result": "did not stimulate"}
    ]},
    {"compound": "O=C1O/C(=C/Br)CCC1c1cccc2ccccc12", "note": "(centres unmarked) [BEL, bromoenol lactone]", "values": [
      {"measurement": "sensitivity of para-nuclear (cancer) PLA2 activities to inhibitor", "setting": "[5]; frozen human GYN cancer tissue sections, DBPC, FIG. 1D", "result": "sensitive"},
      {"measurement": "effect on migration of SKOV3 cells induced by S1 fractions", "setting": "[1]", "result": "dose-dependently reduced"},
      {"measurement": "inhibition of ascites-stimulated proliferation, migration and invasion", "setting": "[6]", "result": "20-40%"},
      {"measurement": "inhibition of EOC metastasis in combination", "setting": "[7]", "result": "can inhibit EOC metastasis"},
      {"measurement": "sensitivity of exosome-associated PLA2 activity to inhibitor", "setting": "[8]", "result": "proved sensitive"},
      {"measurement": "sensitivity of PLA2 activities in normal mouse tissues", "setting": "[9]; kidney, lung, liver", "result": "insensitivity"},
      {"measurement": "effect on sPLA2-like activity of normal mouse kidney tissue", "setting": "[9]; mouse kidney, FIG. 3E", "result": "minimally affected"},
      {"measurement": "tumor size / tumorigenesis", "setting": "[10]; BEL-treated vs control mice", "result": "reduces tumorigenesis; also recorded: significantly smaller"},
      {"measurement": "PLA2 activity in tumors of treated mice", "setting": "[10]; tumors from BEL-treated vs control mice, FIG. 3B", "result": "greatly reduced"}
    ]},
    {"compound": "CCCCCCCCCCCCCCCCOC[C@@H](O)COP(=O)([O-])OCC[N+](C)(C)C", "note": "[lyso-PAF, lyso-platelet activating factor]", "values": [
      {"measurement": "stimulation of migration", "setting": "[1]", "result": "did not stimulate"},
      {"measurement": "stimulation of invasion", "setting": "[4]", "result": "did not stimulate"}
    ]},
    {"compound": "CCCCCCCCCCCCCCCCSC[C@H](COP(=O)(O)OCC[N+](C)(C)C)NC(=O)CCCCCCCCCCCCCCC", "note": "[TAPC, thioether amide-PC]", "values": [
      {"measurement": "sensitivity of tumor PLA2 activity to inhibitor", "setting": "[5]; frozen tumor sections, MAFP 40 μM, TAPC 250 μM, FIG. 7B", "result": "but not to an inhibitor of sPLA2"},
      {"measurement": "blocking of sPLA2 activity of positive control", "setting": "[11]", "result": "blocking sPLA2 activity"},
      {"measurement": "inhibition of ascitic PLA2 activity", "setting": "[8]", "result": "did not inhibit"},
      {"measurement": "sensitivity of exosome-associated PLA2 activity to inhibitor", "setting": "[8]", "result": "proved sensitive"}
    ]},
    {"compound": "COc1ccc(Cl)cc1C(=O)NCCc1ccc(S(=O)(=O)NC(=O)NC2CCCCC2)cc1", "note": "[glyburide]", "values": [
      {"measurement": "order of effectiveness in reducing PLA2 activity of CM", "setting": "[3]", "result": "MK571>glyburide>CsA"},
      {"measurement": "effect on PLA2 activity of CM", "setting": "[3]", "result": "dose-responsively reduced"},
      {"measurement": "migration of SKOV3 cells to CM from inhibitor-treated macrophages", "setting": "[12]", "result": "did not stimulate migration"}
    ]},
    {"compound": "O[C@@H](CS)[C@@H](O)CS", "note": "[DTT]", "values": [
      {"measurement": "inhibition of ascitic PLA2 activity", "setting": "[8]", "result": "did not inhibit"}
    ]},
    {"compound": "CCCCCCCC/C=C\\CCCCCCCC(=O)O", "note": "[oleic acid]", "values": [
      {"measurement": "stimulation of migration", "setting": "[1]", "result": "did not stimulate"},
      {"measurement": "stimulation of invasion", "setting": "[4]", "result": "did not stimulate"}
    ]},
    {"compound": "cyclosporine A [CsA]", "values": [
      {"measurement": "order of effectiveness in reducing PLA2 activity of CM", "setting": "[3]", "result": "MK571>glyburide>CsA"},
      {"measurement": "effect on PLA2 activity of CM", "setting": "[3]", "result": "dose-responsively reduced"}
    ]},
    {"compound": "O=C1S/C(=C\\c2ccc(OCc3cccc(B(O)O)c3)cc2)C(=O)N1Cc1ccc(F)cc1", "note": "[HA130]", "values": [
      {"measurement": "effect on migration of SKOV3 cells induced by S1 fractions", "setting": "[1]", "result": "dose-dependently reduced"},
      {"measurement": "inhibition of ascites-stimulated proliferation, migration and invasion", "setting": "[6]", "result": "10-45%"}
    ]},
    {"compound": "CN(C)C(=O)CCSC(SCCC(=O)O)c1cccc(/C=C/c2ccc3ccc(Cl)cc3n2)c1", "note": "(centres unmarked) [MK571]", "values": [
      {"measurement": "order of effectiveness in reducing PLA2 activity of CM", "setting": "[3]", "result": "MK571>glyburide>CsA"},
      {"measurement": "effect on PLA2 activity of CM", "setting": "[3]", "result": "dose-responsively reduced"},
      {"measurement": "migration of SKOV3 cells to CM from inhibitor-treated macrophages", "setting": "[12]", "result": "did not stimulate migration"}
    ]},
    {"compound": "CN(C)c1nc(N)c(C(=O)N=C(N)N)nc1Cl.Cl", "note": "[DMA, 5,5-(N—N-Dimethyl)-amiloride hydrochloride]", "values": [
      {"measurement": "effect on PLA2 activity detected in CM", "setting": "[3]", "result": "Neither inhibitor had any significant effect"}
    ]},
    {"compound": "lysophosphatidylcholine [LPC]", "values": [
      {"measurement": "stimulation of EOC cell migration", "setting": "[13]", "result": "does not stimulate"}
    ]}
  ]
}
